Measurements: patent US8309552B2, “Immunomodulating heterocyclic compounds” (Medigene AG, priority 2003, dated 2012)

molecular target: T1, CD80-CD28 interaction (Homo sapiens, UniProt P33681); assay: Homogenous Time Resolved Fluorescence (HTRF) assay, cell free; type: binding; details: cell free HTRF assay; concentration series 100 μM-1.7 nM; 4 hours at room temperature; read-out: Activity (EC50 in the HTRF assay)
T1 sequence (P33681 35-242 limits assumed): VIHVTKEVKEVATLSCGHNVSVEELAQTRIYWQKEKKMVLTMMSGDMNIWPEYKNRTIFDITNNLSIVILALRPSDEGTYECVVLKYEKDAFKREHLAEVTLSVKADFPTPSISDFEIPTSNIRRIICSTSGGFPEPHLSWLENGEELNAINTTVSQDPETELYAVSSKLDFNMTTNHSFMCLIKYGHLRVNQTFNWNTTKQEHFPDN
How it was run: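 Europium and APC labels were linked through antibodies to CD28 and CD80 fusion proteins. Compounds were tested at 100 μM-1.7 nM for 4 h at room temperature in 50 mM Tris-HCl, 150 mM NaCl pH7.8, 0.1% BSA. Emission read at 665 and 615 nm (excitation 340 nm); non-specific signal measured with C215 Fab in place of CD80; EC50 reported in bands.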

SMILES	EC50
O=C(NCCc1c[nH]c2ccccc12)c1ccc(-n2[nH]c3c(nnc4ccccc43)c2=O)cc1 [Example 268]	1 to 10 µM
O=C(NCCN1CCNCC1)Nc1ccc(-n2[nH]c3c(nnc4ccccc43)c2=O)cc1 [Example 300]	< 1 µM
CCCCNCCNC(=O)c1ccc(-n2[nH]c3c(nnc4ccc(F)cc43)c2=O)cc1 [Example 384]	< 1 µM
COCCCNC(=O)c1ccc(-n2[nH]c3c(nnc4ccccc43)c2=O)cc1 [Example 247]	< 1 µM
COc1ccc(CNC(=O)c2ccc(-n3[nH]c4c(nnc5ccccc54)c3=O)cc2)cc1 [Example 240]	< 1 µM
O=C(NCCCN1CCCC1=O)Nc1ccc(-n2[nH]c3c(nnc4ccccc43)c2=O)cc1 [Example 297]	1 to 10 µM
O=C(NCc1cccc(C(F)(F)F)c1)c1ccc(-n2[nH]c3c(nnc4ccccc43)c2=O)cc1 [Example 248]	> 10 µM
CC(C)NC(=O)c1ccc(-n2[nH]c3c(nnc4ccccc43)c2=O)cc1 [Example 243]	< 1 µM
CN(C)c1ccc(CNC(=O)c2ccc(-n3[nH]c4c(nnc5ccccc54)c3=O)cc2)cc1 [Example 237]	< 1 µM
CC(NC(=O)Nc1ccc(-n2[nH]c3c(nnc4ccccc43)c2=O)cc1)C(C)(C)C (centres unmarked) [Example 262]	> 10 µM
O=C(NCCNc1ccc([N+](=O)[O-])cn1)Nc1ccc(-n2[nH]c3c(nnc4ccccc43)c2=O)cc1 [Example 302]	> 10 µM
CNCCCNC(=O)c1ccc(-n2[nH]c3c(nnc4ccc(OC)cc43)c2=O)cc1 [Example 418]	< 1 µM
O=C(NCCN1CCNC1=O)Nc1ccc(-n2[nH]c3c(nnc4ccccc43)c2=O)cc1 [Example 287]	< 1 µM
O=C(NCC(F)F)c1ccc(-n2[nH]c3c(nnc4ccccc43)c2=O)cc1 [Example 311]	< 1 µM
CCC(COCc1ccccc1)NC(=O)c1ccc(-n2[nH]c3c(nnc4ccccc43)c2=O)cc1 (centres unmarked) [Example 276]	1 to 10 µM
CC(c1ccccc1)N1CCC(NC(=O)c2ccc(-n3[nH]c4c(nnc5c(F)cccc54)c3=O)cc2)CC1 (centres unmarked) [Example 337]	< 1 µM
CC(C)=CCC/C(C)=C/CNC(=O)Nc1ccc(-n2[nH]c3c(nnc4ccccc43)c2=O)cc1 [Example 283]	> 10 µM
CCCCCCCCCCCCOCCCNC(=O)c1ccc(-n2[nH]c3c(nnc4ccccc43)c2=O)cc1 [Example 273]	> 10 µM
CN1CCC(NC(=O)c2ccc(-n3[nH]c4c(nnc5cccc(F)c54)c3=O)cc2)CC1 [Example 391]	< 1 µM
O=C(NC1C2CC3CC(C2)CC1C3)c1ccc(-n2[nH]c3c(nnc4ccccc43)c2=O)cc1 (centres unmarked) [Example 313]	1 to 10 µM
O=C(NCCSc1cc(C(F)(F)F)nc2ccccc12)Nc1ccc(-n2[nH]c3c(nnc4ccccc43)c2=O)cc1 [Example 227]	> 10 µM
CC(C)NCCCNC(=O)c1ccc(-n2[nH]c3c(nnc4ccc(F)cc43)c2=O)cc1 [Example 385]	< 1 µM

Now from value to molecule:

EC50	SMILES
< 1 µM	CCNCCNC(=O)c1ccc(-n2[nH]c3c(nnc4c(F)cccc43)c2=O)cc1 [Example 357]
< 1 µM	CN(C)CCCNC(=O)c1ccc(-n2[nH]c3c(nnc4c(Cl)cccc43)c2=O)cc1 [Example 411]
< 1 µM	O=C(NCCF)c1ccc(-n2[nH]c3c(nnc4c(F)cccc43)c2=O)cc1 [Example 426]
1 to 10 µM	O=C(c1ccc(-n2[nH]c3c(nnc4c(F)cccc43)c2=O)cc1)N1CCC(N2CCCCC2)CC1 [Example 421]
< 1 µM	CC=CCNC(=O)c1ccc(-n2[nH]c3c(nnc4c(F)cccc43)c2=O)cc1 [Example 333]
1 to 10 µM	O=C(NCCc1ccc(Cl)cc1Cl)c1ccc(-n2[nH]c3c(nnc4c(F)cccc43)c2=O)cc1 [Example 370]
< 1 µM	O=C(NCCCNC1CCCCC1)c1ccc(-n2[nH]c3c(nnc4c(F)cc(F)cc43)c2=O)cc1 [Example 415]
< 1 µM	Cc1ccc2nnc3c(=O)n(-c4ccc(C(=O)NCCCNC5CCCCC5)cc4)[nH]c3c2c1 [Example 407]
< 1 µM	CN(C)CCCNC(=O)c1ccc(-n2[nH]c3c(nnc4c(F)cc(F)cc43)c2=O)cc1 [Example 414]
< 1 µM	CN(C)CC(C)(C)CNC(=O)c1ccc(-n2[nH]c3c(nnc4c(F)cccc43)c2=O)cc1 [Example 420]
< 1 µM	O=C(CN1CCC(NC(=O)c2ccc(-n3[nH]c4c(nnc5c(F)cccc54)c3=O)cc2)CC1)c1ccccc1 [Example 334]
< 1 µM	O=C(NC1CCN(Cc2ccccc2)CC1)c1ccc(-n2[nH]c3c(nnc4c(F)cccc43)c2=O)cc1 [Example 323]

same assay, conditions: cell-free HTRF, compound concentration series 100 μM-1.7 nM, 4 hours at room temperature; read-out: Activity (EC50 in the HTRF assay)

SMILES	EC50
O=C(NCCNc1cccc2ccccc12)c1ccc(-n2[nH]c3c(nnc4ccccc43)c2=O)cc1 [Example 65]	1 to 10 µM
CCCCC(CC)CNC(=O)c1ccc(-n2[nH]c3c(nnc4ccccc43)c2=O)cc1 (centres unmarked) [Example 25]	> 10 µM
O=C(Nc1ccc(-n2[nH]c3c(nnc4ccccc43)c2=O)cc1)NC1CCN(Cc2ccccc2)CC1 [Example 123]	1 to 10 µM
COc1ccc2[nH]cc(CCNC(=O)Nc3ccc(-n4[nH]c5c(nnc6ccccc65)c4=O)cc3)c2c1 [Example 172]	1 to 10 µM
CN1CCC(NC(=O)c2ccc(-n3[nH]c4c(nnc5ccccc54)c3=O)cc2)CC1 [Example 18]	< 1 µM
CCCCCOC(=O)CNC(=O)Nc1ccc(-n2[nH]c3c(nnc4ccccc43)c2=O)cc1 [Example 216]	> 10 µM
COC(=O)C(NC(=O)c1ccc(-n2[nH]c3c(nnc4ccccc43)c2=O)cc1)C(C)C (centres unmarked) [Example 93]	1 to 10 µM
O=C(Nc1ccc(N2CCOCC2)cc1)c1ccc(-n2[nH]c3c(nnc4ccccc43)c2=O)cc1 [Example 40]	1 to 10 µM
O=C(NCCc1ccccn1)Nc1ccc(-n2[nH]c3c(nnc4ccccc43)c2=O)cc1 [Example 196]	1 to 10 µM
CC(NC(=O)c1ccc(-n2[nH]c3c(nnc4ccccc43)c2=O)cc1)C(C)(C)C (centres unmarked) [Example 88]	1 to 10 µM
CCCCNC(=O)Nc1ccc(-n2[nH]c3c(nnc4ccccc43)c2=O)cc1 [Example 177]	1 to 10 µM
O=C(NCC1CCCO1)Nc1ccc(-n2[nH]c3c(nnc4ccccc43)c2=O)cc1 (centres unmarked) [Example 198]	1 to 10 µM
O=C(NCCc1ccncc1)c1ccc(-n2[nH]c3c(nnc4ccccc43)c2=O)cc1 [Example 20]	< 1 µM
CC(O)CCNC(=O)c1ccc(-n2[nH]c3c(nnc4ccccc43)c2=O)cc1 (centres unmarked) [Example 29]	< 1 µM
CC(C)=CCC/C(C)=C/CNC(=O)c1ccc(-n2[nH]c3c(nnc4ccccc43)c2=O)cc1 [Example 14]	> 10 µM
CCC(C)CNC(=O)c1ccc(-n2[nH]c3c(nnc4ccccc43)c2=O)cc1 (centres unmarked) [Example 107]	1 to 10 µM
CC(C)CCNC(=O)c1ccc(-n2[nH]c3c(nnc4ccccc43)c2=O)cc1 [Example 82]	1 to 10 µM
O=C(NCCO)Nc1ccc(-n2[nH]c3c(nnc4ccccc43)c2=O)cc1 [Example 146]	< 1 µM
CCCCN(CCCC)CCCNC(=O)c1ccc(-n2[nH]c3c(nnc4ccccc43)c2=O)cc1 [Example 58]	< 1 µM
O=C(NC1CCCC1OCc1ccccc1)c1ccc(-n2[nH]c3c(nnc4ccccc43)c2=O)cc1 (centres unmarked) [Example 90]	1 to 10 µM
CCNCCNC(=O)Nc1ccc(-n2[nH]c3c(nnc4ccccc43)c2=O)cc1 [Example 143]	< 1 µM

The remaining lines, values ahead:

EC50	SMILES
1 to 10 µM	CCCCCCNC(=O)c1ccc(-n2[nH]c3c(nnc4ccccc43)c2=O)cc1 [Example 113]
< 1 µM	CN1CCN(CCCNC(=O)c2ccc(-n3[nH]c4c(nnc5ccccc54)c3=O)cc2)CC1 [Example 10]

same assay, conditions: cell-free HTRF, concentration series 100 μM-1.7 nM, 4 hours at room temperature; read-out: Activity (EC50 in the HTRF assay)

SMILES	EC50
CC(C)C(C)(C#N)NC(=O)c1ccc(-n2[nH]c3c(nnc4c(F)cccc43)c2=O)cc1 (centres unmarked) [Example 498]	< 1 µM
O=C(N[C@H]1c2ccccc2C[C@H]1O)c1ccc(-n2[nH]c3c(nnc4c(F)cccc43)c2=O)cc1 [Example 510]	1 to 10 µM
CN(C)CCCNC(=O)c1ccc(-n2[nH]c3c(nnc4ccc(Cl)cc43)c2=O)cc1 [Example 446]	< 1 µM

The next lines start with the values.

EC50	SMILES
< 1 µM	CC1CCN(C(=O)c2ccc(-n3[nH]c4c(nnc5c(F)cccc54)c3=O)cc2)CC1 [Example 465]
< 1 µM	O=C(NCCCCF)c1ccc(-n2[nH]c3c(nnc4c(F)cccc43)c2=O)cc1 [Example 437]
< 1 µM	O=C(NCCCN1CCCCCC1)c1ccc(-n2[nH]c3c(nnc4c(F)cccc43)c2=O)cc1 [Example 451]
< 1 µM	O=C(NC1CCC(=C(F)F)CC1)c1ccc(-n2[nH]c3c(nnc4c(F)cccc43)c2=O)cc1 (centres unmarked) [Example 492]
< 1 µM	O=C(NC1CCN(CCCCc2ccccc2)CC1)c1ccc(-n2[nH]c3c(nnc4c(F)cccc43)c2=O)cc1 [Example 457]
< 1 µM	O=C(NCCCCN1CCCCCC1)c1ccc(-n2[nH]c3c(nnc4c(F)cccc43)c2=O)cc1 [Example 462]
< 1 µM	O=C(NC1CCNC1)c1ccc(-n2[nH]c3c(nnc4c(F)cccc43)c2=O)cc1 (centres unmarked) [Example 488]
< 1 µM	C=CCN(CCCCNC(=O)c1ccc(-n2[nH]c3c(nnc4c(F)cccc43)c2=O)cc1)C1CCCC1 [Example 469]
< 1 µM	CC(CO)NC(=O)c1ccc(-n2[nH]c3c(nnc4c(F)cccc43)c2=O)cc1 (centres unmarked) [Example 508]
< 1 µM	O=C(NCC(F)(F)C(F)F)c1ccc(-n2[nH]c3c(nnc4c(F)cccc43)c2=O)cc1 [Example 467]
< 1 µM	C=CCN(CC=C)CCCCNC(=O)c1ccc(-n2[nH]c3c(nnc4c(F)cccc43)c2=O)cc1 [Example 459]
